# Data from patent US11426397B2, “Piperidinyl- and piperazinyl-substituted heteroaromatic carboxamides as modulators of GPR6” (TAKEDA PHARMACEUTICAL COMPANY LIMITED, priority 2017, dated 2022).
# Assays:
# [1] = molecular target: T1, GPR6 receptor expressed in CHO-K1 cells (Homo sapiens, UniProt P46095); experiment: In vitro inhibition of cAMP (EC50), cell-based HTRF cAMP assay; settings: inhibition of constitutive cAMP activity of GPR6 in CHO-K1 cells
# T1 construct: expressed in transfected cells
# How it was run: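 Tetracycline-inducible CHO-K1 line, GPR6 expression induced 20 h with 2 μg/mL doxycycline. Compounds incubated 45 min at 37 °C in Ringer's buffer (pH 7.4) with 0.5% fatty acid free BSA and 300 μM IBMX. Constitutive cAMP read by Lance HTRF; EC50 from four-parameter logistic fit.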
# [2] = system: haloperidol-induced catalepsy; experiment: In vivo Parkinson's disease model, haloperidol-induced catalepsy; set-up: species or system mice; settings: mouse catalepsy model, PO
# Text: II. In Vivo Parkinson's Disease Model Haloperidol-Induced Catalepsy The motor symptoms of Parkinson's disease include akinesia, bradykinesia, rigidity, tremor and postural abnormalities and are associated with the loss of nigral dopaminergic cells and a decline in striatal dopamine levels. Administration of haloperidol to rodents leads to a transient Parkinsonian-like state that is reversed by the administration of levodopa and other drugs that have been clinically validated for the treatment of Parkinson's disease. See Duty, S. & Jenner, P. Br. J. Pharmacol. 164:1357-1391 (2011). Haloperidol antagonizes dopamine D2, and to a lesser extent, D1 receptors in medium spiny neurons that comprise the indirect and direct pathways of the motor circuit, respectively. The resultant block of striatal dopamine transmission results in abnormal downstream firing within the basal ganglia circuits that is manifest as symptoms of muscle rigidity and catalepsy. Catalepsy has been postulated to reflect the clinical features of Parkinson's disease, whereby patients experience an inability to initiate movements. Male C57B16 mice weighing 25-35 g are used. Catalepsy is induced by the subcutaneous (sc) administration of the dopamine receptor antagonist haloperidol (0.45 mg/kg) at least 30 minutes before testing the animals on a vertical grid test. For this test, the rats or mice are placed on a wire mesh cover of a 25 cm×43 cm plexiglass cage placed at an angle of about 70 degrees with the bench table. The subject is placed on the grid with all four legs abducted and extended (“frog posture”). The use of such an unnatural posture is essential for the specificity of this test for catalepsy. The time span from placement of the paws until the first complete removal of one paw (descent latency) is measured maximally for 120 seconds for rats. For mice, the front paws of the mouse is placed on a horizontal metal bar raised 2″ above a Plexiglas platform and time is recorded for up to 30 seconds per trial. The test ends when the animal's front paws return to the platform or after 30 seconds. The test is repeated three times and the average of the three trials is reported as the intensity index of catalepsy. Animals evaluated at 30 minutes after dosing are reevaluated at 60 or 90 minutes post dosing of haloperidol. Efficacy of GPR6 modulators to reverse haloperidol induced catalepsy is measured 30 minutes, 60 minutes, and/or 90 minutes after dosing the subjects with 0.45 mg/kg ip (intraperitoneal injection) of haloperidol along with the GPR6 modulator test compound. A representative number of compounds of Formula 1 are administered in a dose range from 0.1 to 100 mg/kg (po in 0.5% methyl cellulose) in conjunction with haloperidol. […]
# T1 sequence (P46095 whole entry): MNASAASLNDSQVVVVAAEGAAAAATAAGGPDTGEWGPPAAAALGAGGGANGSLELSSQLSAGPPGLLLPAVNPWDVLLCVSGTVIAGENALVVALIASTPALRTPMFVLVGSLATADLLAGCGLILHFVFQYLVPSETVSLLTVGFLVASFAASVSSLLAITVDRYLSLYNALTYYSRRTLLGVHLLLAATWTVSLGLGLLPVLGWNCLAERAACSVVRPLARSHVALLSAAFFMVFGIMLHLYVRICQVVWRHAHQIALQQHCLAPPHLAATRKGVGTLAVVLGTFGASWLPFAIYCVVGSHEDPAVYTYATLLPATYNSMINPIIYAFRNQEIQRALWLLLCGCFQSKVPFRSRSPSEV
"pEC50, in vitro inhibition of cAMP [1]",Compound,also measured
7.3,"COc1ccccc1C(=O)Nc1cc(S(C)(=O)=O)ccc1N1CCC(Oc2ccc(F)cc2F)CC1 [Example 6, N-(2-(4-(2,4-difluorophenoxy)piperidin-1-yl)-5-(methylsulfonyl)phenyl)-2-methoxybenzamide]",melting point: 201 °C
7.4,"COc1ccncc1C(=O)Nc1cc(S(C)(=O)=O)ccc1N1CCC(Oc2ccc(F)cc2F)CC1 [Example 7, N-(2-(4-(2,4-difluorophenoxy)piperidin-1-yl)-5-(methylsulfonyl)phenyl)-4-methoxynicotinamide]",melting point: 173 °C
6.8,"COc1ncccc1C(=O)Nc1cnc(C)nc1N1CCC(Oc2ccc(F)cc2F)CC1 [Example 18, N-(4-(4-(2,4-difluorophenoxy)piperidin-1-yl)-2-methylpyrimidin-5-yl)-2-methoxynicotinamide]","% reversal ([2]; dose 1 mpk, time 30 minutes): 53%; % reversal ([2]; dose 1 mpk, time 90 minutes): 37%"
6.9,"COc1cc(N2CCC(Oc3ccc(F)cc3F)CC2)c(NC(=O)c2cccnc2OC)cn1 [Example 20, N-(4-(4-(2,4-difluorophenoxy)piperidin-1-yl)-6-methoxypyridin-3-yl)-2-methoxynicotinamide]",melting point: 138 °C
7.1,"COc1ncccc1C(=O)Nc1cnc(C(=O)N(C)C)cc1N1CCC(Oc2ccc(F)cc2F)CC1 [Example 31, 4-(4-(2,4-difluorophenoxy)piperidin-1-yl)-5-(2-methoxynicotinamido)-N,N-dimethylpicolinamide]","% reversal ([2]; dose 1 mpk, time 60 minutes): 47%"
7.4,COc1nc(C)ncc1C(=O)Nc1cc(C#N)ccc1N1CCC(Oc2ccc(F)cc2F)CC1 [Example 278],
7.0,"Cn1cccc(C(=O)Nc2cc(S(=O)(=O)N3CCOCC3)cnc2N2CCC(Oc3ccc(F)cc3F)CC2)c1=O [Example 279, N-(2-(4-(2,4-difluorophenoxy)piperidin-1-yl)-5-(morpholinosulfonyl)pyridin-3-yl)-1-methyl-2-oxo-1,2-dihydropyridine-3-carboxamide]",
7.1,"COc1nc(C)ccc1C(=O)Nc1cnc(C#N)nc1N1CCC(Oc2ccc(F)cc2F)CC1 [Example 280, N-(2-cyano-4-(4-(2,4-difluorophenoxy)piperidin-1-yl)pyrimidin-5-yl)-2-methoxy-6-methylnicotinamide]",
6.4,"COc1ncccc1C(=O)Nc1cnc(C(=O)N(C)C)nc1N1CCC(Oc2ccc(F)cc2F)CC1 [Example 281, 4-(4-(2,4-difluorophenoxy)piperidin-1-yl)-5-(2-methoxynicotinamido)-N,N-dimethylpyrimidine-2-carboxamide]",
7.2,"COc1ncccc1C(=O)Nc1cc(C#N)nnc1N1CCC(Oc2ccc(F)cc2F)CC1 [Example 282, N-(6-cyano-3-(4-(2,4-difluorophenoxy)piperidin-1-yl)pyridazin-4-yl)-2-methoxynicotinamide]",
6.8,"COc1nc(C)ccc1C(=O)Nc1cnc(C(=O)N(C)C)cc1N1CCC(Oc2ccc(F)cc2F)CC1 [Example 283, 4-(4-(2,4-difluorophenoxy)piperidin-1-yl)-5-(2-methoxy-6-methylnicotinamido)-N,N-dimethylpicolinamide]","% reversal ([2]; dose 3 mpk, time 60 minutes): 47%"
6.6,"COc1ccc(C(=O)N2CCN(c3ccc(C#N)cc3NC(=O)c3cccnc3OC)CC2)c(F)c1 [Example 284, N-(5-cyano-2-(4-(2-fluoro-4-methoxybenzoyl)piperazin-1-yl)phenyl)-2-methoxynicotinamide]",
6.9,"COc1ncccc1C(=O)Nc1cc(C#N)ccc1N1CCN(C(=O)c2ccc(Cl)cc2)CC1 [Example 285, N-(2-(4-(4-chlorobenzoyl)piperazin-1-yl)-5-cyanophenyl)-2-methoxynicotinamide]",
6.7,"COc1ncccc1C(=O)Nc1cc(C#N)ccc1N1CCN(C(=O)c2ccc(F)cc2)CC1 [Example 286, N-(5-cyano-2-(4-(4-fluorobenzoyl)piperazin-1-yl)phenyl)-2-methoxynicotinamide]",
6.2,"COc1ncccc1C(=O)Nc1cc(C#N)ccc1N1CCN(S(=O)(=O)c2ccc(F)cc2)CC1 [Example 287, N-(5-cyano-2-(4-((4-fluorophenyl)sulfonyl)piperazin-1-yl)phenyl)-2-methoxynicotinamide]",
6.0,COc1ncccc1C(=O)Nc1cc(C#N)ccc1N1CCN(C(C)c2ccc(F)cc2)CC1 (stereo not shown) [Example 288],
6.9,COc1ncccc1C(=O)Nc1cnc(C(F)(F)F)cc1N1CCC(Oc2ccc(F)cc2F)CC1 [Example 289],
6.5,COc1ncccc1C(=O)Nc1cc(C#N)ccc1N1CCN(Cc2ncc(F)cc2F)CC1 [Example 290],
6.9,"COc1ncccc1C(=O)Nc1cc(C#N)ccc1N1CCN(Cc2ccc(F)cc2C#N)CC1 [Example 291, N-(5-cyano-2-(4-(2-cyano-4-fluorobenzyl)piperazin-1-yl)phenyl)-2-methoxynicotinamide]",
6.6,"Cn1cccc(C(=O)Nc2cc(C#N)ccc2N2CCC(Oc3cc(F)cnc3F)CC2)c1=O [Example 292, N-(5-cyano-2-(4-((2,5-difluoropyridin-3-yl)oxy)piperidin-1-yl)phenyl)-1-methyl-2-oxo-1,2-dihydropyridine-3-carboxamide]",
6.6,"Cn1cccc(C(=O)Nc2cc(C#N)ccc2N2CCC(Oc3ncc(F)cc3F)CC2)c1=O [Example 293, N-(5-cyano-2-(4-((3,5-difluoropyridin-2-yl)oxy)piperidin-1-yl)phenyl)-1-methyl-2-oxo-1,2-dihydropyridine-3-carboxamide]",
